From article PMC7248252, “Accumulation of TB-Active Compounds in Murine Organs Relevant to Infection by Mycobacterium tuberculosis” (Frontiers in Pharmacology, 2020)
Converted amounts (≈) assume the structure as drawn.

Assays:
[1] = 25 mg/kg, healthy murine lung tissue; ref Irwin et al., 2016; cited from earlier work
[2] = parameters: method as in Ishida et al., 1999; settings: 120 mg/kg, Streptococcus pneumoniae-infected mouse model; ref Ishida et al., 1999; cited from earlier work
[3] = tested on: Mycobacterium tuberculosis; settings: determined in different experiments, reference not given; cited from earlier work
[4] = mouse, tissue homogenate
[5] = in vivo, po, 10 mg/kg
[6] = Unbound tissue concentrations (tissue binding by ultracentrifugation of spiked organ homogenate); settings: 1 μg/ml, 4 h, 37°C

Row | SMILES | maximal lung concentration [2] | MIC90 [3] | unbound fractions [4] | Cmax (highest concentration) lung tissue ([5]; mouse) | estimated organ free fraction concentration compared with MIC90 ([5]; mouse) | Ratio bound ([6]; Blood) | Ratio bound ([6]; Brain) | Ratio bound ([6]; Heart) | Ratio bound ([6]; Kidney) | Ratio bound ([6]; Liver) | Ratio bound ([6]; Lung) | Ratio bound ([6]; Spleen) | further results
1 | COc1nc2ccc(Br)cc2cc1[C@@H](c1ccccc1)[C@@](O)(CCN(C)C)c1cccc2ccccc12 [bedaquiline] |  |  |  |  |  |  |  |  |  |  |  |  | Cmax lung tissue [1]: 24 µM
2 | C[C@H]1COc2c(N3CCN(C)CC3)c(F)cc3c(=O)c(C(=O)O)cn1c23 [LVX] | 5.95 µg/g |  |  |  |  |  |  |  |  |  |  |  | 
3 | CCCCCCCCCOc1cc2c(=O)c(C(=O)NCCOCCO)cn(CC)c2cc1OCC [RMB041] |  | 1.61 µM (≈ 0.79 µg/mL) | 0.18-0.01 | 3.2 nmol/mg | below the MIC90 values | 0.82 | 0.98 | 0.97 | 0.97 | 0.91 | 0.93 | 0.92 | 
4 | CC1(C)S[C@@H]2[C@H](NC(=O)[C@H](N)c3ccccc3)C(=O)N2[C@H]1C(=O)O [ampicillin] | 1.71 µg/g |  |  |  |  |  |  |  |  |  |  |  | 
5 | O=C(O)c1cn(C2CC2)c2cc(N3CCNCC3)c(F)cc2c1=O [ciprofloxacin] | 1.10 µg/g |  |  |  |  |  |  |  |  |  |  |  | 
6 | CCN(CC)c1ccc2nc3c4ccccc4c(=Nc4ccccc4)cc-3oc2c1 [PhX1] |  | 0.196 µM (≈ 0.0771 µg/mL) | 0.18-0.01 | 22.4 ± 2.35 nmol/mg | below the MIC90 values | 0.88 | 0.98 | 0.98 | 0.97 | 0.99 | 0.97 | 0.94 | AUC lung tissue ([5]; male, C57BL/6, mouse): 9669 ± 120.2 min/nmol/mg; AUC heart tissue ([5]; mouse): 12450 ± 45.2 min/nmol/mg; Cmax heart tissue ([5]; mouse): 8.83 ± 3.16 nmol/mg
